Tests used:
5LO-1 = target: T1, 5LO-1 (Homo sapiens, UniProt P09917); test: In vitro efficacy: inhibitor of 5LO-1; assay type: biochemical
T1 sequence (P09917 1-674): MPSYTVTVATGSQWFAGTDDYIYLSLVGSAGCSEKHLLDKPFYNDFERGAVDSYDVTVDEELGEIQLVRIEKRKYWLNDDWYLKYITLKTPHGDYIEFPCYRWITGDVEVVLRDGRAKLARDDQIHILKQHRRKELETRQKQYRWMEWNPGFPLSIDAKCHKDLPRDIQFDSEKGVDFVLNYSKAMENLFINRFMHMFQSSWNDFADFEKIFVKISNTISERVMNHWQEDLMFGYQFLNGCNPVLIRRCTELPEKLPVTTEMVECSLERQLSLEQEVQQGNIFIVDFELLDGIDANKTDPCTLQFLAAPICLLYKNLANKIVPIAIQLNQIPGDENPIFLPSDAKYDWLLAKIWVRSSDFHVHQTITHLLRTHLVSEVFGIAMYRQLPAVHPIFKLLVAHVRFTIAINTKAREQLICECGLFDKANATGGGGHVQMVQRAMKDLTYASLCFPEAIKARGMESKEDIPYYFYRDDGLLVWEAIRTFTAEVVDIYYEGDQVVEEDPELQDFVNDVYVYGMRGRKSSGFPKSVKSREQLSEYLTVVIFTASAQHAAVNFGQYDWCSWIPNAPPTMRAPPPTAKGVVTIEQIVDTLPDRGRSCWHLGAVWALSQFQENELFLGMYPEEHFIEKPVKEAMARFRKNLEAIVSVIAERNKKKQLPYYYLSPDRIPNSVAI

COX-1 = COX-1 (Homo sapiens, UniProt P23219); test: In vitro efficacy: inhibitor of COX-1; assay type: biochemical
LTB4 = test: In vitro efficacy: inhibitor of LTB4; assay type: biochemical
TXB2 = test: In vitro efficacy: inhibitor of TXB2; assay type: biochemical
COX-2 = target: T2, COX-2 (Homo sapiens, UniProt P35354); test: In vitro efficacy: inhibitor of COX-2; assay type: biochemical
T2 sequence (P35354 18-604): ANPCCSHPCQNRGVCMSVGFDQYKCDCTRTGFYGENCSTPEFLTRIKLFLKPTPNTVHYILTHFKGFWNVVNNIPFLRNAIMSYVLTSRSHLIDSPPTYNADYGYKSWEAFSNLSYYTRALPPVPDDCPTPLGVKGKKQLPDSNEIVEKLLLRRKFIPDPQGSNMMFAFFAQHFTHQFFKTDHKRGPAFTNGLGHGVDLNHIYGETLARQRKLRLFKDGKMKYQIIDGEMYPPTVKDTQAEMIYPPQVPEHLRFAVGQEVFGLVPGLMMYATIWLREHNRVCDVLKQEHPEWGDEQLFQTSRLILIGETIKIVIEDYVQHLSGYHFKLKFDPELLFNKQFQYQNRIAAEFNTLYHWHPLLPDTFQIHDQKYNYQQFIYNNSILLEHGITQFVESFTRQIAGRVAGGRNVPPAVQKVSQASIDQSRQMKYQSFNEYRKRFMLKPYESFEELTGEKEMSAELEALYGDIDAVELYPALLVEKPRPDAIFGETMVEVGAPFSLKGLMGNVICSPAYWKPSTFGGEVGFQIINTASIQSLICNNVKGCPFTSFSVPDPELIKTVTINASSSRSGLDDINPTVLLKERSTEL

[1] = test system: Rabbit Anterior Cruciate Ligament Transection (ACLT) Model; test: Rabbit ACLT osteoarthritis model, NSAID dispersed in HA (Example 4); assay type: in vivo, New Zealand White Rabbits; conditions: intra-articular 160 μL once per week for 5 weeks
Source text: Osteoarthritis is a degenerative disease that degrades cartilage, resulting in pain, restriction of motion and deformity. In the ACLT model, the appearance of OA can be seen at 6 weeks and is characterized by erosion of cartilage on the trochlear grove and mild to serious cartilage erosion on the femoral condyle. The last symptoms to arise are on the tibial plateau. At 6 weeks, there is some damage visible on the tibial plateau, but the damage may not be great given the length of the study. […] While osteophyte formation is a factor in the analysis, several parameters are observed, wherein each parameter alone is not sufficient to draw a conclusion. Therefore, the composite score provides a more meaningful result for a particular agent tested.
The ACLT model was used to evaluate the ability of a NSAID agent in a pharmaceutical formulation administered directly into the intra-articular capsule of the knee to reduce the incidence of osteoarthritic changes. The NSAIDs formulations prepared in Example 2 were used and injected 6 weeks after animal preparation. A commercially available form of purified HA was used as the vehicle control. The animals (n=7 per group) were dosed (160 μL per injection) once per week for 5 weeks.
Female New Zealand White Rabbits (n=84, Milibrook Breeding Labs, SPF) used in the study underwent ACLT on the right knee.
One week after the last injection (total 12 weeks from time of ACLT), animals were euthanized and gross observations were made on the knee joints. Histological sectioning and staining were performed on the condyles.
The joints were analyzed for disease state in the trochlear groove, the femoral condyles and the tibial plateau. Pathological assessments were performed on the sectioned tissue. Condylar structure, cellularity, presence of GAG (glycosaminoglycans) and presence of cartilage were evaluated.
On the anterior surface of the femur (trochlear groove), the number of osteophytes, the size (diameter) of osteophytes, the presence of trochlear groove thickening and the erosion of cartilage were evaluated grossly.
On the femoral condyles, the erosion of cartilage (% surface area) (both medial and lateral condyle), the erosion of cartilage (depth) and the presence of clefts were evaluated grossly.
On the tibial plateau, observations on the thickening, presence of clefts and erosion were made.
Each parameter was given a score. The combination of all parameters gave a Total Score. A higher score indicates more damage to the joint. The data for un-operated joints (no surgery) has been included as a baseline for a normal joint.

Chain of COX-1 (P23219 24-599): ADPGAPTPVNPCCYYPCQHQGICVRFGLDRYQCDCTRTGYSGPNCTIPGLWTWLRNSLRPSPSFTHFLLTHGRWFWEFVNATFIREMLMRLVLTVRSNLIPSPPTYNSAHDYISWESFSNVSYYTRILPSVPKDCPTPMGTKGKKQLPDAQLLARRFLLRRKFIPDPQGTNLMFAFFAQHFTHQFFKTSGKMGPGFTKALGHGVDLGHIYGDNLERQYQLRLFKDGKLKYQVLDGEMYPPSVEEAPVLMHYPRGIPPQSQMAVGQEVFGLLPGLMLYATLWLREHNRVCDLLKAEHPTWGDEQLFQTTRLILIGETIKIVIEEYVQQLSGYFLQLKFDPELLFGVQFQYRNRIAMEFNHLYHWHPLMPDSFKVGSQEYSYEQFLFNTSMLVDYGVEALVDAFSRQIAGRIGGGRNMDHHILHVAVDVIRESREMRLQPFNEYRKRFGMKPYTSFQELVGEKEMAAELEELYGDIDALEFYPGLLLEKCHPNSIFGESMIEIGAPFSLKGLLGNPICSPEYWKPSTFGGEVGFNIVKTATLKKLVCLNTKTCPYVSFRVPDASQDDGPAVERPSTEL

COc1ccc(-n2nc(CCC(=O)N(C)O)cc2-c2ccc(Cl)cc2)cc1 [Tepoxalin]
IC50 (5LO-1): 170 nM
IC50 (COX-1): 970 nM
IC50 (LTB4): 40 nM
IC50 (TXB2): 2 nM
IC50 (COX-2): 2000 nM
Medial Femoral Condyle (% Surface Area Erosion) score ([1]; all dose groups): average numerical scores less than Vehicle and No Injection treated groups
All Cartilage Effects composite score ([1]; high dose): lower mean scores than the No Injection treated group
All Trochlear Groove Effects composite score ([1]; high dose): lower mean scores than Vehicle and No Injection treated groups
Total Score (composite of all scoring criteria) ([1]; high dose): numerically less average scores than the No Injection treated group
Trochlear Groove (Erosion of Cartilage) grade ([1]; high dose): numerically lower than the Vehicle control and No Injection treated groups
Total Score (composite of all scoring criteria) ([1]; low dose): numerically less average scores than the No Injection treated group
All Cartilage Effects composite score ([1]; mid dose): lower mean scores than the No Injection treated group
Lateral Femoral Condyle (% Surface Area Erosion) score ([1]; mid dose): average numerical scores less than Vehicle and No Injection treated groups

CC(C(=O)O)c1ccc(C(=O)c2cccs2)cc1 (stereo not drawn) [Suprofen]
IC50 (5LO-1): 3000 nM
IC50 (COX-1): 60 nM
IC50 (COX-2): 1000 nM
All Trochlear Groove Effects composite score ([1]; all dose groups): lower mean scores than Vehicle and No Injection treated groups
Trochlear Groove (Erosion of Cartilage) grade ([1]; all dose levels): numerically lower than the Vehicle control and No Injection treated groups
All Cartilage Effects composite score ([1]; high dose): lower mean scores than the No Injection treated group
Lateral Femoral Condyle (% Surface Area Erosion) score ([1]; high dose): average numerical scores less than Vehicle and No Injection treated groups
Total Score (composite of all scoring criteria) ([1]; high dose): numerically less average scores than the No Injection treated group
Medial Femoral Condyle (% Surface Area Erosion) score ([1]; low dose): the same average score as No Injection but scored better than Vehicle
All Cartilage Effects composite score ([1]; mid dose): lower mean scores than the No Injection treated group
All Tibial Plateau Effects composite score ([1]; mid dose): lower average scores than the No Injection treated group
Lateral Femoral Condyle (% Surface Area Erosion) score ([1]; mid dose): average numerical scores less than Vehicle and No Injection treated groups
Medial Femoral Condyle (% Surface Area Erosion) score ([1]; mid dose): average numerical scores less than Vehicle and No Injection treated groups
Total Score (composite of all scoring criteria) ([1]; mid dose): numerically less average scores than the No Injection treated group

Cc1ccc(C(=O)c2ccc(CC(=O)O)n2C)cc1 [Tolmetin]
IC50 (5LO-1): 30 nM
IC50 (COX-1): 3000 nM
IC50 (COX-2): 50 nM
All Trochlear Groove Effects composite score ([1]; high dose): lower mean scores than Vehicle and No Injection treated groups
Femoral Condyle (Depth of Erosion) score ([1]; high dose): the same average score as the No Injection group
Trochlear Groove (Erosion of Cartilage) grade ([1]; high dose): numerically lower than the Vehicle control and No Injection treated groups
Medial Femoral Condyle (% Surface Area Erosion) score ([1]; low dose): average numerical scores less than Vehicle and No Injection treated groups
All Cartilage Effects composite score ([1]; mid dose): lower mean scores than the No Injection treated group
All Tibial Plateau Effects composite score ([1]; mid dose): lower average scores than the No Injection treated group
Lateral Femoral Condyle (% Surface Area Erosion) score ([1]; mid dose): average numerical scores less than Vehicle and No Injection treated groups
Medial Femoral Condyle (% Surface Area Erosion) score ([1]; mid dose): average numerical scores less than Vehicle and No Injection treated groups
Total Score (composite of all scoring criteria) ([1]; mid dose): numerically less average scores than the No Injection treated group

Source: US20060122150A1, “Pharmaceutical composition and method for treating a joint-capsule arthropathy” (priority 2004, published 2006)
